From PMC6161601 (Journal of Enzyme Inhibition and Medicinal Chemistry, 2018)
“And” between values parts separate entries of the source, which are not always exact repeats. Equal values may be shown once. “Also recorded” adds a separate entry of the source. Read-outs that look alike come from different tables or passages of the source.

Tests used:
[1] = biological target: T1, human erythrocyte acetylcholinesterase (AChE) (Homo sapiens, UniProt P22303); test: Kinetic parameters and type of AChE inhibition (Hanes–Woolf); type: biochemical; settings: for Vmax(i) AChE: mean ± SD; for vmax AChE, individual experiments B1–B3: inhibitor at 1/3 of IC50; for vmax AChE, individual experiments C1–C3: inhibitor at IC50
T1 construct: from tissue; host or cells: haemolysed erythrocytes of healthy human donors
T1 sequence (P22303 other isoform, or with tags, fused parts or gaps): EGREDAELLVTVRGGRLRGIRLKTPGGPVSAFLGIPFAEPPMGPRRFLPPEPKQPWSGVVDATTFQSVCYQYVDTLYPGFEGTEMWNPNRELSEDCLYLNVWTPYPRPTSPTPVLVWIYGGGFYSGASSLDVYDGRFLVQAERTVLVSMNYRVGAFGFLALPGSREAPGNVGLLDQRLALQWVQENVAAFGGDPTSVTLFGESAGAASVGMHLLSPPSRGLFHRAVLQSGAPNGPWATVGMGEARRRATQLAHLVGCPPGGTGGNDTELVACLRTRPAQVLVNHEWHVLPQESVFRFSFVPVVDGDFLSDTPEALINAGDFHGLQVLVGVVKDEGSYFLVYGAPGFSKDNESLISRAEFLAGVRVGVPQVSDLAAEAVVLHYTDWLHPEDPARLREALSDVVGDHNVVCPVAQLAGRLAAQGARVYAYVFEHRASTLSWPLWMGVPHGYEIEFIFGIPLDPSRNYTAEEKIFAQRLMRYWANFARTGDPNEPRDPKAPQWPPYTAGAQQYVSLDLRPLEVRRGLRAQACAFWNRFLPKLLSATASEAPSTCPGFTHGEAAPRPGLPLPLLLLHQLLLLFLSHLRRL
Method: (§1) The absorbance was recorded at λ = 436 nm using a CECIL 2021 spectrophotometer (CECIL Instruments Limited, Cambridge, UK) with a thermostatic water flow (temperature 37° C).
(§2) AChE Selectivity Index (SI) was calculated with the aid of the following formula: SI = IC50 of BChE/IC50 of AChE. In turn BuChE SI was defined as IC50 of AChE/IC50 of BChE. Linear regression (Hanes–Woolf plots) were used to estimate the maximal velocity (Vmax) and the Michaelis constant (Km).
(§3) To establish the type of inhibition, additional experiments were conducted with various concentrations of substrates (ATC, BTC), and the kinetic parameters of the enzymatic reactions were obtained using Hanes–Woolf equation, which is a graphical representation of enzyme kinetics in which the ratio of the initial substrate concentration [S] to the reaction velocity v is plotted against [S]. […]

[2] = biological target: T1, human erythrocyte acetylcholinesterase (AChE); test: biochemical; settings: for SI AChE: IC50 BChE/IC50 AChE; for IC50: human erythrocyte AChE, mean ± SD of three independent experiments
Method: (§4) Blood samples were obtained from healthy donors from the Voievodal Specialized Hospital in Łódź, Poland (Wojewódzki Specjalistyczny Szpital im. Dr W. Biegańskiego w Łodzi). The blood was collected into vacuum tubes containing sodium citrate. Erythrocytes were separated from plasma by centrifugation (3000 × g, 10 min, 20 °C) with a Micro 22 R centrifuge (Hettich ZENTRIFUGEN, Tuttlingen, Germany) and washed three times with 0.9% saline. Afterwards, red cells were haemolysed by freezing and stored at a temperature of –30 °C; before each experiment, they were restored at 37° C for 15 min and used to determine AChE activity. […] The studies on the biological material were approved by the Bioethics Committee of the Medical University of Lodz (RNN/27/18/KE).
(§5) The activity of both cholinesterases (AChE and BuChE) were conducted using a spectrophotometric method developed by Ellman with previously described modifications[25]^,[30]. […] 400-fold diluted solution of haemolysed erythrocytes or diluted plasma (200 times) was incubated for 15 min (37° C) with DTNB and tested compound at an appropriate concentration, and the reaction was started by addition of substrate (ATC or BTC). The final volume of a sample was 500 µL.
as §2

[3] = biological target: T2, human plasma butyrylcholinesterase (BuChE) (Homo sapiens, UniProt P06276); test: biochemical; settings: for IC50: human plasma BuChE, mean ± SD of three independent experiments; for SI BuChE: IC50(AChE)/IC50(BChE)
T2 construct: Plasma for determination of BuChE activity was obtained by centrifuging the blood; from tissue; host or cells: plasma of healthy human donors
T2 sequence (P06276 29-602): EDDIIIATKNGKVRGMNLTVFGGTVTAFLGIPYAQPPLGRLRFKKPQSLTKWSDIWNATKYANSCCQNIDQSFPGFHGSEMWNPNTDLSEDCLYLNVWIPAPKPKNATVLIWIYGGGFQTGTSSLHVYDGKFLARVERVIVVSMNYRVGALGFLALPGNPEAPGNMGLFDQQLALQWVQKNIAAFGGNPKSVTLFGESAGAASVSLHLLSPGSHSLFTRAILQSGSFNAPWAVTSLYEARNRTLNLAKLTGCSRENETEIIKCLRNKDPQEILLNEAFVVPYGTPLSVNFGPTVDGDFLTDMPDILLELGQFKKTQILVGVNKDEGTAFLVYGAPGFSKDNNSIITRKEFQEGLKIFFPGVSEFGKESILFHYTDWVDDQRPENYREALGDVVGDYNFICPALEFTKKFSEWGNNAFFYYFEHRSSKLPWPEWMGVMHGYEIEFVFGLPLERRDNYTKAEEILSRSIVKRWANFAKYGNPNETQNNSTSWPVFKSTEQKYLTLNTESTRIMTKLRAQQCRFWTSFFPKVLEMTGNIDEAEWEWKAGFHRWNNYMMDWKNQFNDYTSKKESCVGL
Method: as §4, §5, §2

[4] = biological target: T2, human plasma butyrylcholinesterase (BuChE); test: Kinetic parameters and type of BuChE inhibition (Hanes–Woolf); type: biochemical; settings: for Vmax(i) BuChE: mean ± SD; for vmax BuChE, individual experiments B1–B3: inhibitor at 1/3 of IC50; for vmax BuChE, individual experiments C1–C3: inhibitor at IC50
Method: as §1, §2, §3

AChE = biological target: T3, AChE (Homo sapiens, UniProt P22303); type: biochemical
T3 construct: 400-fold diluted solution of haemolysed erythrocytes or diluted plasma (200 times) was incubated; from tissue; host or cells: haemolysed erythrocytes of healthy human donors
T3 sequence (P22303 other isoform, or with tags, fused parts or gaps): as the sequence (P22303 other isoform, or with tags, fused parts or gaps) above

BuChE [5] = biological target: T4, BuChE (Homo sapiens, UniProt P06276); test: BuChE inhibition with excess of substrate (BTC); type: biochemical; settings: BTC 2.5 mmol/L
T4 construct: Plasma for determination of BuChE activity was obtained by centrifuging the blood; from tissue; host or cells: plasma of healthy human donors
T4 sequence (P06276 29-602): as the sequence (P06276 29-602) above

Aβ42 peptide = biological target: T5, Aβ42 peptide (Homo sapiens, UniProt P05067); test: Beta-amyloid (Aβ 1–42) aggregation, SensoLyte ThT kit; type: biochemical
T5 construct: Beta-amyloid (Aβ 1–42) aggregation studies were conducted using SensoLyte ThT Aβ42 Aggregation kit; purchased AnaSpec, Inc, Fremont, CA
T5 sequence (P05067 672-713): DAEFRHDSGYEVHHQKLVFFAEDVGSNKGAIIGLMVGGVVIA
Method: Beta-amyloid (Aβ 1–42) aggregation studies were conducted using SensoLyte ThT Aβ42 Aggregation kit (AnaSpec, Inc, Fremont, CA). Aβ42 peptide was dissolved in cold (4 °C) assay buffer and left to hydrate for a few minutes. The solution was spined at 10,000 rpm for 5 min at 4 °C to centrifuge out any precipitated material. […] The final volume of the test samples was 100 µL. Simultaneously, the positive control and negative control containing morin at the final concentration of 100 µmol/L were established. […] The measurements of fluorescence intensity expressed as relative fluorescence units (RFU) were taken for 90 min with 5 min intervals. The fluorescence intensity measured for positive control equals 100% of Aβ aggregation and was used for estimation of inhibition properties of tested biguanides.
Statistical analysis of data obtained in Aβ aggregation assay was conducted with a commercially available package (GraphPad Prism 5, La Jolla, CA). The results were expressed as the mean ± standard deviation (SD) of measurements conducted in triplicates or quadruplicates. One or two-way ANOVA and subsequent post hoc tests were used for intergroup comparisons. The results were considered significant at p values lower than 0.05.

BuChE [6] = biological target: T4, BuChE; settings: BTC 0.75 mmol/L; previously published; cited from earlier work
[7] = biological target: T1, human erythrocyte acetylcholinesterase (AChE); settings: previous study; cited from earlier work

Compound | type of AChE inhibition [1] | vmax AChE, mean ± SD ([1]; B: inhibitor at 1/3 of IC50) [mA/min] | Vmax(i) AChE ([1]; B: inhibitor at 1/3 of IC50) [A/min] | vmax AChE, mean ± SD ([1]; C: inhibitor at IC50) [mA/min] | Vmax(i) AChE ([1]; C: inhibitor at IC50) [A/min] | vmax AChE, individual experiments B1–B3 [1] | vmax AChE, individual experiments C1–C3 [1] | SI AChE [2] | IC50 [2] [µM] | IC50 [3] [µM] | I: type of inhibition, BuChE [4] | type of BuChE inhibition [4] | vmax BuChE, mean ± SD ([4]; B: inhibitor at 1/3 of IC50) [mA/min] | Vmax(i) BuChE ([4]; B: inhibitor at 1/3 of IC50) [A/min] | vmax BuChE, mean ± SD ([4]; C: inhibitor at IC50) [mA/min] | Vmax(i) BuChE ([4]; C: inhibitor at IC50) [A/min] | vmax BuChE, individual experiments B1–B3 [4] | vmax BuChE, individual experiments C1–C3 [4] | I: type of inhibition, AChE [1] | SI BuChE [3] | other results
CCCCCCSNC(N)=NC(=N)N(C)C [Compound 1] | non-competitive inhibition; also recorded: noncompetitively | 202.18 ± 7.39 | 0.202 ± 0.007 | 161.59 ± 24.42 | 0.161 ± 0.024 | 200.260 mA/min and 210.362 mA/min and 195.955 mA/min | 141.006 mA/min and 155.200 mA/min and 188.583 mA/min | 0.59 | 3170 ± 411 | 1880 ± 558 | M (M: mixed type) | mixed-type inhibition; also recorded: mixed manner | 206.94 ± 15.02 | 0.207 ± 0.015 | 174.27 ± 11.70 | 0.174 ± 0.012 | 195.000 mA/min and 223.809 mA/min and 202.024 mA/min | 161.000 mA/min and 178.705 mA/min and 183.120 mA/min |  |  | 
CCCCC(CC)CSNC(N)=NC(=N)N(C)C (stereo not shown) [Compound 2] | mixed type | 218.43 ± 5.69 | 0.218 ± 0.005 | 160.75 ± 10.82 | 0.160 ± 0.011 | 225.000 mA/min and 215.564 mA/min and 214.749 mA/min | 153.011 mA/min and 156.143 mA/min and 173.124 mA/min | 0.09 | 3680 ± 693 | 335 ± 107 | M (M: mixed type) | mixed manner; also recorded: mixed-type | 182.27 ± 9.29 | 0.182 ± 0.009 | 103.11 ± 19.12 | 0.103 ± 0.019 | 192.871 mA/min and 178.466 mA/min and 175.485 mA/min | 115.727 mA/min and 81.110 mA/min and 112.514 mA/min | M (M: mixed type) |  | 
CN(C)C(=N)N=C(N)NS(=O)(=O)c1ccc([N+](=O)[O-])cc1 [Compound 3] | mixed inhibition; also recorded: mixed way | 147.43 ± 22.32 | 0.147 ± 0.022 | 112.29 ± 24.418 | 0.112 ± 0.024 | 173.106 mA/min and 136.619 mA/min and 132.580 mA/min | 136.281 mA/min and 87.466 mA/min and 113.130 mA/min | 0.15 | 3820 ± 278 | 561 ± 192 | M (M: mixed type) | mixed manner | 207.61 ± 5.30 | 0.208 ± 0.005 | 180.05 ± 19.37 | 0.180 ± 0.019 | 207.848 mA/min and 202.204 mA/min and 212.802 mA/min | 166.268 mA/min and 171.680 mA/min and 202.204 mA/min | M (M: mixed type) | 6.82 | 
CN(C)C(=N)N=C(N)NS(=O)(=O)c1ccccc1[N+](=O)[O-] [Compound 4] | mixed inhibition | 162.74 ± 5.00 | 0.163 ± 0.005 | 118.77 ± 19.443 | 0.119 ± 0.019 | 161.000 mA/min and 168.393 mA/min and 158.846 mA/min | 110.000 mA/min and 141.058 mA/min and 105.263 mA/min | 0.30 | 2860 ± 283 | 871 ± 227 |  | non-competitively | 229.87 ± 19.38 | 0.229 ± 0.019 | 174.32 ± 5.91 | 0.174 ± 0.006 | 229.000 mA/min and 249.675 mA/min and 210.944 mA/min | 174.000 mA/min and 180.395 mA/min and 168.586 mA/min | M (M: mixed type) | 3.28 | 
CN(C)C(=N)N=C(N)N [Metformin, metformin, reference compound] |  |  |  |  |  |  |  |  |  |  |  |  |  |  |  |  |  |  |  |  | type of AChE inhibition (AChE; at 1/2 IC50 for AChE): mixed-type; Vmax AChE (AChE; each at 1/2 IC50 for AChE: metformin 1175, donepezil 0.0125, compound 5 106.0 µmol/L, alone or in mixture): 0.179 ± 0.020 A/min; effect on BuChE activity (words) (BuChE [5]): did not reveal anti-BuChE activity; effect on BuChE activity (words) (BuChE [5]; listed as metformin): not to affect the enzyme activity; inhibition at 3000 µM (BuChE [5]; metformin at 3 mmol/L): 1.1 ± 0.51%; inhibition at 600 µM (Aβ42 peptide; 600 µmol/L, read-out: maximal inhibition of Aβ aggregation): 11.3%; effect on Aβ fibrillation vs positive control (Aβ42 peptide; both tested concentrations, 5–90 min): did not significantly affect; also recorded: not to significantly affect; BuChE inhibition (BuChE [6]): up to 21.2%; type of AChE inhibition [7]: mixed inhibition
